Source: patent publication US20250304620A1, “ANTIMICROBIAL PEPTIDE AND APPLICATION THEREOF” (priority 2023, published 2025)
Values after ≈ are worked out from the molar mass of the structure shown. Marks after values point to notes of the source that are not given here. Non-standard residues stand in square brackets, D forms with d. Residues, ends and D or L forms follow the SMILES beside them. dPhe(3,4-Cl2) = N[C@H](Cc1ccc(Cl)c(Cl)c1)C(=O)O; dPhe(4-CF3) = N[C@H](Cc1ccc(C(F)(F)F)cc1)C(=O)O; dPhe(3,4-F2) = N[C@H](Cc1ccc(F)c(F)c1)C(=O)O; dPhe(4-Br) = N[C@H](Cc1ccc(Br)cc1)C(=O)O; dPhe(4-Cl) = N[C@H](Cc1ccc(Cl)cc1)C(=O)O; dPhe(4-Me) = Cc1ccc(C[C@@H](N)C(=O)O)cc1

What was measured:
Enterococcus ATCC 29212 = assay type: cell-based
Procedure, shortened: (§1)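 Five parallel repeats; twofold dilution series of each peptide per US CLSI susceptibility protocol; endpoint = MIC.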

[1] = test system: Trichophyton ATCC MYA-4438; assay type: cell-based
Procedure, shortened: as §1

[2] = test system: Escherichia coli ATCC 25922; assay type: cell-based
Procedure, shortened: as §1

[3] = test system: Candida tropicalis ATCC 750; assay type: cell-based
Procedure, shortened: as §1

[4] = test system: Escherichia coli ATCC 25922; experiment: Oral formulations on mice with systemic bacterial infection; assay type: in vivo, ICR mice; settings: three times a day for 7 days; for Number of mice that died on each day after infection: day 4 / Number of mice that died on each day after infection: day 5 / Number of mice that died on each day after infection: day 6 / Number of mice that died on each day after infection: day 7 / Number of mice that died on each day after infection: day 8 / Average survival times (Days): n = 10; for Average survival times (Days): observed for 14 d
Protocol: Both female and male ICR mice were used in the test, half of the female and male mice were taken and randomly assigned into groups, with 10 mice in each group, and kept in separate cages. The mice were divided into a blank control group, a negative control group, a positive control Levofloxacin group, and AMPs LV-1 to LV-30 groups. An Escherichia coli ATCC 25922 bacterial suspension was prepared, a concentration of the suspension was adjusted 1×10^7 CFU/mL for subsequent use. Except for the blank control group, all other mice were injected with the Escherichia coli suspension (0.2 mL, 1×10^7 CFU/mL), into abdominal cavity of the mice, to establish a model. After the model was successfully established, the mice were given drug immediately according to their body weights. Except for the blank control group and the negative control group, the mice in all other groups were gavaged with different compounds, three times a day for 7 consecutive days. The mice were then observed for 14 d. The death of mice in each group was observed, and survival time of the mice was recorded. Results of the effect of the oral formulations of AMPs LV-1 to LV-30 on the survival time of mice infected with Escherichia coli are shown in Table 11.

[5] = test system: Staphylococcus aureus (NRS 384); experiment: microbe, parasite or virus in culture; assay type: cell-based; settings: NRS 384
Procedure, shortened: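 CLSI broth microdilution with serial twofold dilutions gave MICs against S. aureus NRS 384, with 5 parallel replicates. Levofloxacin and the AMP Cbf-K16 served as positive controls.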

[6] = test system: Staphylococcus aureus (NRS 384); settings: NRS 384, 3 h
Protocol: Trypsin (250 U/mg, pH=8.0) and AMPs (LV-1 to LV-30) were mixed in a ratio of 1:10 (w/w) and added to a reaction buffer (0.2 M sodium phosphate, 1 mM CaCl2), pH 7.5), and then incubated at 37° C. for 3 h.

SMILES | MIC Enterococcus ATCC 29212 (Enterococcus ATCC 29212) | MIC Trichophyton ATCC MYA-4438 [1] | MIC Escherichia coli ATCC 25922 [2] | MIC Candida tropicalis ATCC 750 [3] | Number of mice that died on each day after infection: day 4 ([4]; 1 mg/kg gavage) | Number of mice that died on each day after infection: day 5 ([4]; 1 mg/kg gavage) | Number of mice that died on each day after infection: day 6 ([4]; 1 mg/kg gavage) | Number of mice that died on each day after infection: day 7 ([4]; 1 mg/kg gavage) | Number of mice that died on each day after infection: day 8 ([4]; 1 mg/kg gavage) | Average survival times (Days) ([4]; 1 mg/kg gavage) | MIC against Staphylococcus aureus (NRS 384) [5] | Trypsin MIC [6] | further results
CC(=O)N[C@H](CCCNC(=N)N)C(=O)N[C@H](CCCCN)C(=O)N[C@H](CC(C)C)C(=O)N[C@H](CC(C)C)C(=O)N[C@H](Cc1ccc(F)c(F)c1)C(=O)N[C@H](CCCCN)C(=O)N[C@H](CC(C)C)C(=O)N[C@H](CCCCN)C(=O)N[C@H](Cc1ccc(F)c(F)c1)C(=O)N[C@H](CCCCN)C(=O)N[C@H](CCCNC(=N)N)C(N)=O [LV-6] (Ac-[dR][dK][dL][dL][dPhe(3,4-F2)][dK][dL][dK][dPhe(3,4-F2)][dK][dR]-NH2) | 2 µg/mL (≈ 1.26 µM) | 8 µg/mL (≈ 5.03 µM) | 1 µg/mL (≈ 0.629 µM) | 4 µg/mL (≈ 2.52 µM) | 1 Mouse | 0 Mouse | 1 Mouse | 1 Mouse | 1 Mouse | 10.9*** Days | 1 µg/mL (≈ 0.629 µM) | 1 µg/mL | Number of mice that died on each day after infection: day 4 ([4]; 0.2 mg/kg gavage): 1 Mouse; Number of mice that died on each day after infection: day 5 ([4]; 0.2 mg/kg gavage): 3 Mouse; Number of mice that died on each day after infection: day 6 ([4]; 0.2 mg/kg gavage): 2 Mouse; Number of mice that died on each day after infection: day 7 ([4]; 0.2 mg/kg gavage): 0 Mouse; Number of mice that died on each day after infection: day 8 ([4]; 0.2 mg/kg gavage): 0 Mouse; Average survival times (Days) ([4]; 0.2 mg/kg gavage): 8.7** Days; Number of mice that died on each day after infection: day 4 ([4]; 5 mg/kg gavage): 2 Mouse; Number of mice that died on each day after infection: day 5 ([4]; 5 mg/kg gavage): 1 Mouse; Number of mice that died on each day after infection: day 6 ([4]; 5 mg/kg gavage): 1 Mouse; Number of mice that died on each day after infection: day 7 ([4]; 5 mg/kg gavage): 0 Mouse; Number of mice that died on each day after infection: day 8 ([4]; 5 mg/kg gavage): 0 Mouse; Average survival times (Days) ([4]; 5 mg/kg gavage): 10.3*** Days; survival time of mice infected with Escherichia coli ([4]; gavage, observed 14 d): superior to those of the Levofloxacin group
CC(=O)N[C@H](CCCNC(=N)N)C(=O)N[C@H](CCCCN)C(=O)N[C@H](CC(C)C)C(=O)N[C@H](CC(C)C)C(=O)N[C@H](Cc1ccc(Cl)cc1)C(=O)N[C@H](CCCCN)C(=O)N[C@H](CC(C)C)C(=O)N[C@H](CCCCN)C(=O)N[C@H](Cc1ccc(Cl)cc1)C(=O)N[C@H](CCCCN)C(=O)N[C@H](CCCNC(=N)N)C(N)=O [LV-7] (Ac-[dR][dK][dL][dL][dPhe(4-Cl)][dK][dL][dK][dPhe(4-Cl)][dK][dR]-NH2) | 8 µg/mL (≈ 5.04 µM) | 8 µg/mL (≈ 5.04 µM) | 4 µg/mL (≈ 2.52 µM) | 8 µg/mL (≈ 5.04 µM) | 2 Mouse | 2 Mouse | 0 Mouse | 1 Mouse | 1 Mouse | 8.9** Days | 1 µg/mL (≈ 0.63 µM) | 1 µg/mL | –
CC(=O)N[C@H](CCCNC(=N)N)C(=O)N[C@H](CCCCN)C(=O)N[C@H](CC(C)C)C(=O)N[C@H](CC(C)C)C(=O)N[C@H](Cc1ccc(Cl)c(Cl)c1)C(=O)N[C@H](CCCCN)C(=O)N[C@H](CC(C)C)C(=O)N[C@H](CCCCN)C(=O)N[C@H](Cc1ccc(Cl)c(Cl)c1)C(=O)N[C@H](CCCCN)C(=O)N[C@H](CCCNC(=N)N)C(N)=O [LV-8] (Ac-[dR][dK][dL][dL][dPhe(3,4-Cl2)][dK][dL][dK][dPhe(3,4-Cl2)][dK][dR]-NH2) | 2 µg/mL (≈ 1.21 µM) | 8 µg/mL (≈ 4.83 µM) | 2 µg/mL (≈ 1.21 µM) | 16 µg/mL (≈ 9.66 µM) | 2 Mouse | 1 Mouse | 0 Mouse | 2 Mouse | 0 Mouse | 9.7** Days | 1 µg/mL (≈ 0.604 µM) | 1 µg/mL | –
CC(=O)N[C@H](CCCNC(=N)N)C(=O)N[C@H](CCCCN)C(=O)N[C@H](CC(C)C)C(=O)N[C@H](CC(C)C)C(=O)N[C@H](Cc1ccc(C(F)(F)F)cc1)C(=O)N[C@H](CCCCN)C(=O)N[C@H](CC(C)C)C(=O)N[C@H](CCCCN)C(=O)N[C@H](Cc1ccc(C(F)(F)F)cc1)C(=O)N[C@H](CCCCN)C(=O)N[C@H](CCCNC(=N)N)C(N)=O [LV-9] (Ac-[dR][dK][dL][dL][dPhe(4-CF3)][dK][dL][dK][dPhe(4-CF3)][dK][dR]-NH2) | 4 µg/mL (≈ 2.42 µM) | 16 µg/mL (≈ 9.67 µM) | 2 µg/mL (≈ 1.21 µM) | 16 µg/mL (≈ 9.67 µM) | 1 Mouse | 1 Mouse | 1 Mouse | 2 Mouse | 0 Mouse | 9.9** Days | 1 µg/mL (≈ 0.605 µM) | 1 µg/mL | –
CC(=O)N[C@H](CCCCN)C(=O)N[C@H](CCCCN)C(=O)N[C@H](CC(C)C)C(=O)N[C@H](CC(C)C)C(=O)N[C@H](Cc1ccc(Br)cc1)C(=O)N[C@H](CCCNC(=N)N)C(=O)N[C@H](CC(C)C)C(=O)N[C@H](CCCCN)C(=O)N[C@H](Cc1ccc(Br)cc1)C(=O)N[C@H](CCCNC(=N)N)C(=O)N[C@H](CCCCN)C(N)=O [LV-10] (Ac-[dK][dK][dL][dL][dPhe(4-Br)][dR][dL][dK][dPhe(4-Br)][dR][dK]-NH2) | 2 µg/mL (≈ 1.19 µM) | 8 µg/mL (≈ 4.77 µM) | 1 µg/mL (≈ 0.597 µM) | 4 µg/mL (≈ 2.39 µM) | 0 Mouse | 2 Mouse | 2 Mouse | 0 Mouse | 1 Mouse | 10.0*** Days | 1 µg/mL (≈ 0.597 µM) | 1 µg/mL | –
CC(=O)N[C@H](CCCNC(=N)N)C(=O)N[C@H](CCCCN)C(=O)N[C@H](CC(C)C)C(=O)N[C@H](CC(C)C)C(=O)N[C@H](Cc1ccc(C)cc1)C(=O)N[C@H](CCCCN)C(=O)N[C@H](CC(C)C)C(=O)N[C@H](CCCCN)C(=O)N[C@H](Cc1ccc(C)cc1)C(=O)N[C@H](CCCCN)C(=O)N[C@H](CCCNC(=N)N)C(N)=O [LV-11] (Ac-[dR][dK][dL][dL][dPhe(4-Me)][dK][dL][dK][dPhe(4-Me)][dK][dR]-NH2) | 2 µg/mL (≈ 1.29 µM) | 8 µg/mL (≈ 5.17 µM) | 2 µg/mL (≈ 1.29 µM) | 8 µg/mL (≈ 5.17 µM) | 1 Mouse | 1 Mouse | 1 Mouse | 1 Mouse | 2 Mouse | 9.4** Days | 1 µg/mL (≈ 0.647 µM) | 1 µg/mL | –
